Where a SMILES comes first, the peptide text is derived from it. Where no end group is shown, it is not given here. [ ]: non-standard residue; d: D form.
Legend:
THP-1 cells [1] = test: Apoptosis by Annexin V/propidium iodide staining, flow cytometry; format: cell-based, human; conditions: THP-1, 48 h; Fig. 1C
Description: (§1) The THP-1, U937, and HL-60 cell lines were purchased from ATCC. THP-1, HL-60, and U937 cells were cultured in RPMI 1640 containing 2 mM glutamine, 100 IU/ml penicillin and 100 μg/ml streptomycin (Sigma), supplemented with 10% fetal bovine serum (FBS; Gibco). Cell cultures were maintained at 37 °C, 5% CO2 at 0.8–1 × 10^5 cells/ml. For the initiation of differentiation in THP-1, HL-60, U937, and primary AML cells, the cells were seeded into 12-well tissue culture plates at 1 × 10^6 cells/well. Subsequently, these cells were exposed to the indicated clonal phages (10^10 virions per well), peptides (10 μg/ml), or 100 nM PMA (Sigma-Aldrich, MO, USA).
APC Annexin V Apoptosis Detection Kit with PI (BioLegend, Catalog # 640932, CA, USA) was employed to evaluate cell apoptosis. Target cells were washed twice with cold BioLegend’s Cell Staining Buffer, then suspended in Annexin V Binding Buffer at a concentration of 0.25–1.0 × 10^7 cells/ml. To 100 µL of the cell suspension, 5 µL of APC Annexin V and 10 µL of Propidium Iodide Solution (PI) were added. The suspension was gently vortexed and incubated in the dark for 15 minutes at room temperature. Finally, 400 µL of Annexin V Binding Buffer was added to each tube, and the samples were analyzed by flow cytometry. […]

THP-1 cells [2] = test: Proliferation by Ki-67 staining, FACS; format: cell-based, human; conditions: THP-1, 48 h; Fig. 1D
Description: as §1
To assess proliferation, Ki-67 was detected using FACS after 48 h of cell culture exposed to a specific stimulation. Following the manual instruction, the target cells were incubated with 70% cold ethanol at −20 °C for 1 h, washed, and then suspended at a concentration of 1.0 × 10^7/ml in BioLegend Cell Staining Buffer. Subsequently, 100 µl cell suspension was incubated with the 5 µl Ki-67 antibody for flow cytometric analysis.

NOD/SCID mice = test: In vivo toxicity at 10-fold treatment dose (H&E of major organs, glucose and serum biochemical indices); conditions: 200 mg/kg i.v. every 3 days, 30 days, n = 3 per group
Description: Based on the above in vitro findings, we next tested whether the peptides could suppress the growth of leukemia cells in vivo. To this end, NOD/SCID mice were subcutaneously inoculated with THP-1 cells. L-pep-P6, D-pep-P6, or pep-NC was injected intravenously into NOD/SCID mice (n = 3 per group) at a 10-fold treatment dose (200 mg/kg) every 3 days. We first examined the toxicity of these peptides in vivo. After 30 days of indicated treatments, the major organs, including the heart, kidney, spleen, liver, and lung, were isolated and stained with hematoxylin and eosin. No histological changes in major organs were detectable in the peptide-treated groups when compared with the untreated group (Fig. 4A). We further examined the glucose and serum biochemical indices, such as aspartate aminotransferase (AST), alanine aminotransferase (ALT), creatinine (Cr), and urea.
The mice were categorized into three groups, including the pep-NC group, the D-pep-P6 group, and the […] group (n = 3 per group). These groups received a dosage that was ten times the standard therapeutic amount via the tail vein. Major organs of mice from different treated groups were fixed in 4% formaldehyde for hematoxylin and eosin staining. Following a hydration process, the tissues were stained with Harris hematoxylin for 15 min. […]

[3] = In vivo pharmacokinetic assay; design: species or system NOD/SCID mice
Description: In addition, we administered a therapeutic dose of D-pep-P6 (20 mg/kg) via intravenous tail injection into NOD/SCID mice (n = 3 per group). Serum samples were collected at various time points, and the content of D-pep-P6 was quantitatively analyzed using high-performance liquid chromatography coupled with mass spectrometry (Supplemental Fig. 3).
Female NOD/SCID mice weighing between 18 and 20 g were utilized for the pharmacokinetic analysis of D-pep-p6. In the plasma, D-pep-p6 pharmacokinetic profile analysis, groups of mice (n = 3) were administered a single intravenous dose of 20 mg/kg. Blood samples were collected at specified time intervals and subsequently centrifuged at 8000 rpm for 10 min. The resulting plasma was mixed with CH4O in a 3:1 (v/v) ratio and centrifuged once more at 13,000 rpm for 10 min. The supernatant was then analyzed using RP-HPLC to determine parameters such as the maximum plasma concentration (Cmax) and elimination half-life (T1/2).

THP-1 cells [4] = test: Differentiation: cell surface CD11b and CD14 by FACS; format: cell-based, human; conditions: THP-1, 48 h; ***P < 0.001; 6 independent experiments
Description: as §1
Differentiation status was also assessed by morphological observation of the cells and by FACS detection of cell surface CD11b and CD14 expression (Table 3). FcR Blocking Reagent (Miltenyi Biotec) was employed to prevent undesired antibody binding and enhance the staining specificity of cell surface antigens.

THP-1 cells [5] = test: Cell differentiation induction: ratio of adherent cells; format: cell-based, human; conditions: clonal phages P1, P2, P6, P9 enriched in Round 3; Fig. 1G
Description: as §1
Cells were cultured according to the method described above. As the adherent cell numbers reached a peak at 48 h and declined after 72 h, we chose 48 h as the incubation time in the following experiments. Following the incubation period, cells within each were washed 3 times with PBS. Cells were considered to be adherent if they resisted the vigorous shake of the culture flask and washing by pipetting with a normal growth medium. To assess the ratio of adherent cells, an equal amount of FITC beads (BioLegend, Catalog # 424601, CA, USA) was separately introduced to both suspended and adherent cells. Subsequently, the proportions of FITC beads were measured using FACS. […]

Compound: CCCCCCCCCCCCCC(=O)O[C@@H]1[C@@H](C)[C@@]2(O)[C@@H](C=C(CO)C[C@]3(O)C(=O)C(C)=C[C@@H]23)[C@@H]2C(C)(C)[C@]12OC(C)=O [PMA, phorbol 12-myristate 13-acetate]
- proportions of apoptotic and necrotic cells compared to the unstimulated group (THP-1 cells [1]): slight increase
- proliferation (Ki-67 expression) compared to negative control (THP-1 cells [2]): significant reduction in proliferation

Compound: QFPGFGTELPSS [L-pep-P6]
- signs of toxicity / overall toxicity (NOD/SCID mice): low toxicity

Compound: CC(C)C[C@@H](NC(=O)[C@@H](CCC(=O)O)NC(=O)[C@H](NC(=O)CNC(=O)[C@@H](Cc1ccccc1)NC(=O)CNC(=O)[C@H]1CCCN1C(=O)[C@@H](Cc1ccccc1)NC(=O)[C@H](N)CCC(N)=O)[C@H](C)O)C(=O)N1CCC[C@@H]1C(=O)N[C@H](CO)C(=O)N[C@H](CO)C(=O)O [D-pep-P6] (H-[dQ][dF][dP]G[dF]G[dT][dE][dL][dP][dS][dS]-OH)
- signs of toxicity / overall toxicity (NOD/SCID mice): low toxicity
- resistance to proteolysis / stability in vivo ([3]; NOD/SCID mice, i.v. 20 mg/kg, from concentration-time curve): remarkable resistance to proteolysis
- Cmax ([3]; mouse, iv, female NOD/SCID mice, single i.v. 20 mg/kg, n = 3 per time point, plasma (serum), RP-HPLC (HPLC coupled with mass spectrometry), read-out: maximum concentration (Cmax)): 13200 ng/mL

Compound: QFPGFGTELPSS [P6, monoclonal phage from Ph.D.-12 library displaying …]
- MFI of CD11b expression induced by P6 relative to that induced by PMA (THP-1 cells [4]): 1.5 fold
- MFI of CD14 expression induced by P6 relative to that induced by PMA (THP-1 cells [4]): 1.3 fold
- capability for inducing THP-1 cell differentiation (percentage of adherent cells) among clonal phages (THP-1 cells [5]): greatest capability for inducing THP-1 cell differentiation

Source: publication PMC10810823, “Generation of a new therapeutic D-peptide that induces the differentiation of acute myeloid leukemia cells through A TLR-2 signaling pathway” (Cell Death Discovery, 2024)
